Assay results published in ChEMBL document CHEMBL4507287, “Data for DCP probe MRL-650” (2021).

Columns and labels:
[1] = biological target: Mitogen-activated protein kinase 6 (Homo sapiens) (UniProt Q16659); settings: Compound concentration 1000.0 nM
[2] = biological target: Mitogen-activated protein kinase kinase kinase 7 (Homo sapiens) (UniProt O43318); settings: Compound concentration 1000.0 nM
[3] = biological target: Inhibitor of nuclear factor kappa-B kinase subunit epsilon (Homo sapiens) (UniProt Q14164); settings: Compound concentration 1000.0 nM
[4] = biological target: Tyrosine-protein kinase JAK3 (Homo sapiens) (UniProt P52333); settings: Compound concentration 1000.0 nM
[5] = biological target: Serine/threonine-protein kinase Nek10 (Homo sapiens) (UniProt Q6ZWH5); settings: Compound concentration 1000.0 nM
[6] = biological target: 5-hydroxytryptamine receptor 1D (Homo sapiens) (UniProt P28221); settings: Compound concentration 10.0 uM
[7] = biological target: Glycogen synthase kinase-3 alpha (Homo sapiens) (UniProt P49840); settings: Compound concentration 1000.0 nM
Chain of Glycogen synthase kinase-3 alpha (Homo sapiens) (P49840 2-483 limits assumed): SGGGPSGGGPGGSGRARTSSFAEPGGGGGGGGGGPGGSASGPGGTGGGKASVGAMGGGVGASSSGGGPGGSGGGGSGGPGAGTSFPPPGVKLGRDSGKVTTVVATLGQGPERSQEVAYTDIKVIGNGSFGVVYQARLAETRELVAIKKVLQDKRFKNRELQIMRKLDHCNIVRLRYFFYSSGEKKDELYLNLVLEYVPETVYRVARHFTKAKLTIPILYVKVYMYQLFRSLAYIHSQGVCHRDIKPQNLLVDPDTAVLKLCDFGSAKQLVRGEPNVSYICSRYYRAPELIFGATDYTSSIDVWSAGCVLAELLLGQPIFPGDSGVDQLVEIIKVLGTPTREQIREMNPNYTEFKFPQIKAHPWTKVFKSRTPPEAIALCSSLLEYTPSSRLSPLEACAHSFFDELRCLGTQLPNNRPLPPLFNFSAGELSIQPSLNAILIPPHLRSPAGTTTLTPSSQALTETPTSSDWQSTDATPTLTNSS

[8] = biological target: Calcium/calmodulin-dependent protein kinase type 1B (Homo sapiens) (UniProt Q6P2M8); settings: Compound concentration 1000.0 nM
[9] = biological target: Tyrosine-protein kinase JAK1 (Homo sapiens) (UniProt P23458); settings: Compound concentration 1000.0 nM
[10] = biological target: Serine/threonine-protein kinase VRK2 (Homo sapiens) (UniProt Q86Y07); settings: Compound concentration 1000.0 nM
[11] = biological target: Mitogen-activated protein kinase 8 (Homo sapiens) (UniProt P45983); settings: Compound concentration 1000.0 nM
Chain of Mitogen-activated protein kinase 8 (Homo sapiens) (P45983 whole entry): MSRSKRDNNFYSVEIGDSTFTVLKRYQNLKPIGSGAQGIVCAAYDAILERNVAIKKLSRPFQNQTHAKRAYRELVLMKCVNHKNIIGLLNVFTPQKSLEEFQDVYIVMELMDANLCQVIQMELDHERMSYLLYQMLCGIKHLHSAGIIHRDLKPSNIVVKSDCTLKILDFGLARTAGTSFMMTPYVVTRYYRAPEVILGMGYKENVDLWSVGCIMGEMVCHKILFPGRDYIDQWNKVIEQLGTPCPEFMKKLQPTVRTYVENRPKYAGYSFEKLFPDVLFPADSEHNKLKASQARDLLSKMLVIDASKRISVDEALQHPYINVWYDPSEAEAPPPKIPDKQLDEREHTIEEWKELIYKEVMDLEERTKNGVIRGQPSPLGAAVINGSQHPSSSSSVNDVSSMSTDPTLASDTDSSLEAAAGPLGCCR

[12] = biological target: Serine/threonine-protein kinase WNK3 (Homo sapiens) (UniProt Q9BYP7); settings: Compound concentration 1000.0 nM
[13] = biological target: Serine/threonine-protein kinase PLK4 (Homo sapiens) (UniProt O00444); settings: Compound concentration 1000.0 nM
[14] = biological target: Tyrosine-protein kinase receptor UFO (Homo sapiens) (UniProt P30530); settings: Compound concentration 1000.0 nM
[15] = biological target: Serine/threonine-protein kinase PknB (Mycobacterium tuberculosis) (UniProt P9WI81); settings: Compound concentration 1000.0 nM
[16] = biological target: Alpha-2C adrenergic receptor (Homo sapiens) (UniProt P18825); settings: Compound concentration 10.0 uM
[17] = biological target: Serine/threonine-protein kinase N2 (Homo sapiens) (UniProt Q16513); settings: Compound concentration 1000.0 nM
[18] = biological target: Mitogen-activated protein kinase kinase kinase kinase 4 (Homo sapiens) (UniProt O95819); settings: Compound concentration 1000.0 nM
[19] = biological target: Mitogen-activated protein kinase kinase kinase kinase 5 (Homo sapiens) (UniProt Q9Y4K4); settings: Compound concentration 1000.0 nM
Chain of Mitogen-activated protein kinase kinase kinase kinase 5 (Homo sapiens) (Q9Y4K4 whole entry, looked up): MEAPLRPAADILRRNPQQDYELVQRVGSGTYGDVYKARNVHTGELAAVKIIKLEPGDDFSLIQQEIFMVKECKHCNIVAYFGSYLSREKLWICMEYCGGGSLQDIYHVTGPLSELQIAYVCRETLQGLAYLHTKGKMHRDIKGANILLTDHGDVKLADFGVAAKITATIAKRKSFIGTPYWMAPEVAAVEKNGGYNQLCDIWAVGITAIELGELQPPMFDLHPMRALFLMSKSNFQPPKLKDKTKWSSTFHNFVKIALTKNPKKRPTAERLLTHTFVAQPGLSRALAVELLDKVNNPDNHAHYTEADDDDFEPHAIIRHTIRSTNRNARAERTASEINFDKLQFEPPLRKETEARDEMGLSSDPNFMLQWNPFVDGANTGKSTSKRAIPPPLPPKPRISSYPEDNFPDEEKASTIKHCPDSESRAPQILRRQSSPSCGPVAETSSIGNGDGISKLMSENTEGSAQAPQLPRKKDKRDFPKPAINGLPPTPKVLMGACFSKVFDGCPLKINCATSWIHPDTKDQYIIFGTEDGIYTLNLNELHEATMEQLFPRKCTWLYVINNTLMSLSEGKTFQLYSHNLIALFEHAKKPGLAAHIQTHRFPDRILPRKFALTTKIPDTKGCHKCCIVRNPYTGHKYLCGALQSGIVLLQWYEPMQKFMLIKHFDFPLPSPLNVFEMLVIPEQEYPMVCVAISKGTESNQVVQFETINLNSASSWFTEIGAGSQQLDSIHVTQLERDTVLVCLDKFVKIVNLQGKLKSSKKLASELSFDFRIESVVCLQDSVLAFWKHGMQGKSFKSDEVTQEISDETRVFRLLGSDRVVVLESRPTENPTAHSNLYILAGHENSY

[20] = biological target: NT-3 growth factor receptor (Homo sapiens) (UniProt Q16288); settings: Compound concentration 1000.0 nM
[21] = biological target: Ribosomal protein S6 kinase alpha-1 (Homo sapiens) (UniProt Q15418); settings: Compound concentration 1000.0 nM
[22] = biological target: Membrane-associated tyrosine- and threonine-specific cdc2-inhibitory kinase (Homo sapiens) (UniProt Q99640); settings: Compound concentration 1000.0 nM
[23] = biological target: Serine/threonine-protein kinase WNK1 (Homo sapiens) (UniProt Q9H4A3); settings: Compound concentration 1000.0 nM
[24] = system: ALK tyrosine kinase receptor (Homo sapiens), Q9UM73 [C1156Y]; settings: Compound concentration 1000.0 nM
[25] = biological target: Inhibitor of nuclear factor kappa-B kinase subunit alpha (Homo sapiens) (UniProt O15111); settings: Compound concentration 1000.0 nM
[26] = biological target: Phosphatidylinositol 4,5-bisphosphate 3-kinase catalytic subunit delta isoform (Homo sapiens) (UniProt O00329); settings: Compound concentration 1000.0 nM
[27] = biological target: Serine/threonine-protein kinase 33 (Homo sapiens) (UniProt Q9BYT3); settings: Compound concentration 1000.0 nM
[28] = biological target: Dual specificity mitogen-activated protein kinase kinase 1 (Homo sapiens) (UniProt Q02750); settings: Compound concentration 1000.0 nM
[29] = biological target: Histamine H1 receptor (Homo sapiens) (UniProt P35367); settings: Compound concentration 10.0 uM
[30] = biological target: Muscarinic acetylcholine receptor M1 (Homo sapiens) (UniProt P11229); settings: Compound concentration 10.0 uM
[31] = system: Tyrosine-protein kinase ABL1 (Homo sapiens), P00519 [Y253F]; settings: Compound concentration 1000.0 nM
[32] = biological target: Alpha-2B adrenergic receptor (Homo sapiens) (UniProt P18089); settings: Compound concentration 10.0 uM
[33] = biological target: Wee1-like protein kinase (Homo sapiens) (UniProt P30291); settings: Compound concentration 1000.0 nM
[34] = biological target: Tyrosine-protein kinase Fyn (Homo sapiens) (UniProt P06241); settings: Compound concentration 1000.0 nM
[35] = biological target: Receptor-interacting serine/threonine-protein kinase 1 (Homo sapiens) (UniProt Q13546); settings: Compound concentration 1000.0 nM
[36] = system: Phosphatidylinositol 4,5-bisphosphate 3-kinase catalytic subunit alpha isoform (Homo sapiens), P42336 [H1047Y]; settings: Compound concentration 1000.0 nM
Chain of Phosphatidylinositol 4,5-bisphosphate 3-kinase catalytic subunit alpha isoform (Homo sapiens), P42336 [H1047Y] (P42336 whole entry H1047Y, canonical isoform): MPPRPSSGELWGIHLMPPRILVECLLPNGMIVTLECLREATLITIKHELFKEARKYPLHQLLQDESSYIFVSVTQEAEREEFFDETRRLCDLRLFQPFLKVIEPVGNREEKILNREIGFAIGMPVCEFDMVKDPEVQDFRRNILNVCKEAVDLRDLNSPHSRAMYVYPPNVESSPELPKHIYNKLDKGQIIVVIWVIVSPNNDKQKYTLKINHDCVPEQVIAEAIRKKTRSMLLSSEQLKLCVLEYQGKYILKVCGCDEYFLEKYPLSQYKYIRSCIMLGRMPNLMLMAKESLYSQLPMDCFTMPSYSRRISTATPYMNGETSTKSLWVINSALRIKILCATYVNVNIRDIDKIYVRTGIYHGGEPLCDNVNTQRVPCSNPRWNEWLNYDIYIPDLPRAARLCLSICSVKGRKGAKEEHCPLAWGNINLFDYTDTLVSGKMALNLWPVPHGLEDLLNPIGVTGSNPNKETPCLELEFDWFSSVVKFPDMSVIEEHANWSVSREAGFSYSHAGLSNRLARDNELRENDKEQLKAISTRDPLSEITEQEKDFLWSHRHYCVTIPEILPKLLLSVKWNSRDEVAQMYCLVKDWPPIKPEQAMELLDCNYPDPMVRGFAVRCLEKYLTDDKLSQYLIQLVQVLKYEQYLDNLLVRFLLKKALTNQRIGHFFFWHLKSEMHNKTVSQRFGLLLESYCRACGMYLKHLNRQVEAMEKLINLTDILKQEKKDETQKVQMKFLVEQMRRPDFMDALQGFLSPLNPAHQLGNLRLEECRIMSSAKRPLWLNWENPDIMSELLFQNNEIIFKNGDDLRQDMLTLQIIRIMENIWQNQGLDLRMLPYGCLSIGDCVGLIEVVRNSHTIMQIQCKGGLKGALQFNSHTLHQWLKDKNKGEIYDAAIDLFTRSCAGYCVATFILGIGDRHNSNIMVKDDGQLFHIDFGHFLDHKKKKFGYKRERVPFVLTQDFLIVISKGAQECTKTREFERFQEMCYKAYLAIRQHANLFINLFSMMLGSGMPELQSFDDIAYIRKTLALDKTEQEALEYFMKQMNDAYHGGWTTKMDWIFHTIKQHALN

[37] = system: Epidermal growth factor receptor (Homo sapiens), P00533 [L861Q]; settings: Compound concentration 1000.0 nM
[38] = system: Phosphatidylinositol 4,5-bisphosphate 3-kinase catalytic subunit alpha isoform (Homo sapiens), P42336 [H1047L]; settings: Compound concentration 1000.0 nM
Chain of Phosphatidylinositol 4,5-bisphosphate 3-kinase catalytic subunit alpha isoform (Homo sapiens), P42336 [H1047L] (P42336 whole entry H1047L, canonical isoform): as the sequence (P42336 whole entry H1047Y, canonical isoform) above, with Y1047L counted along it

[39] = biological target: Ephrin type-B receptor 2 (Homo sapiens) (UniProt P29323); settings: Compound concentration 1000.0 nM
Chain of Ephrin type-B receptor 2 (Homo sapiens) (P29323 whole entry): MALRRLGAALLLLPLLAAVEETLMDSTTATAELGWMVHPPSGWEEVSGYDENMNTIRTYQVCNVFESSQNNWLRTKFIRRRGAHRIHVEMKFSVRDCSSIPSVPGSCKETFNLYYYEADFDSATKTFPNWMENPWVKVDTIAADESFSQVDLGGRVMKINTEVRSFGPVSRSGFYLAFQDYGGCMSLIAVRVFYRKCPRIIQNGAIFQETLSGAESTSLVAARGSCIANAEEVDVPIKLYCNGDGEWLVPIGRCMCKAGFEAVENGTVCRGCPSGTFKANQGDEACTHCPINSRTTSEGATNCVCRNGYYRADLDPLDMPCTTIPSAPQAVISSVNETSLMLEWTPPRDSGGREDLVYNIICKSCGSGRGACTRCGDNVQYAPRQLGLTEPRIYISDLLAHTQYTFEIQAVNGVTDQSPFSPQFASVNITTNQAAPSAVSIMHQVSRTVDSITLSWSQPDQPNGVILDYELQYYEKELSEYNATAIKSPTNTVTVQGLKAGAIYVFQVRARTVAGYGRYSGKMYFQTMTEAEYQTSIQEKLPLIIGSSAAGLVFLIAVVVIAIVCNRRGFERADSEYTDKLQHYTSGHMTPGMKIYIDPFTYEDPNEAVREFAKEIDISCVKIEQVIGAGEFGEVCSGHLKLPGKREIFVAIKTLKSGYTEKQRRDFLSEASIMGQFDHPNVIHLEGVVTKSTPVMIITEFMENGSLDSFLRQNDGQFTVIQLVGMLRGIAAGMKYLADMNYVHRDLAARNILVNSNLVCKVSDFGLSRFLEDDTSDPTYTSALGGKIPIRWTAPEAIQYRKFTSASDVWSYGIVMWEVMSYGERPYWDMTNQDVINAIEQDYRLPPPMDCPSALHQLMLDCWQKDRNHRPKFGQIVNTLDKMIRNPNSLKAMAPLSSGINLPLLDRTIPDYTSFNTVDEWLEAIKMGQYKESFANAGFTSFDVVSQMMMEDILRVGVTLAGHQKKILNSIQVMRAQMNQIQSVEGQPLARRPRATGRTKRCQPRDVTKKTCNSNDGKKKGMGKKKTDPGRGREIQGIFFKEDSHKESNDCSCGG

[40] = system: Leucine-rich repeat serine/threonine-protein kinase 2 (Homo sapiens), Q5S007 [G2019S]; settings: Compound concentration 1000.0 nM
[41] = biological target: cGMP-dependent protein kinase 2 (Homo sapiens) (UniProt Q13237); settings: Compound concentration 1000.0 nM
[42] = biological target: Epithelial discoidin domain-containing receptor 1 (Homo sapiens) (UniProt Q08345); settings: Compound concentration 1000.0 nM
[43] = biological target: Serine/threonine-protein kinase 36 (Homo sapiens) (UniProt Q9NRP7); settings: Compound concentration 1000.0 nM
[44] = biological target: Bone morphogenetic protein receptor type-2 (Homo sapiens) (UniProt Q13873); settings: Compound concentration 1000.0 nM
[45] = biological target: Mitogen-activated protein kinase kinase kinase 14 (Homo sapiens) (UniProt Q99558); settings: Compound concentration 1000.0 nM
Chain of Mitogen-activated protein kinase kinase kinase 14 (Homo sapiens) (Q99558 whole entry, looked up): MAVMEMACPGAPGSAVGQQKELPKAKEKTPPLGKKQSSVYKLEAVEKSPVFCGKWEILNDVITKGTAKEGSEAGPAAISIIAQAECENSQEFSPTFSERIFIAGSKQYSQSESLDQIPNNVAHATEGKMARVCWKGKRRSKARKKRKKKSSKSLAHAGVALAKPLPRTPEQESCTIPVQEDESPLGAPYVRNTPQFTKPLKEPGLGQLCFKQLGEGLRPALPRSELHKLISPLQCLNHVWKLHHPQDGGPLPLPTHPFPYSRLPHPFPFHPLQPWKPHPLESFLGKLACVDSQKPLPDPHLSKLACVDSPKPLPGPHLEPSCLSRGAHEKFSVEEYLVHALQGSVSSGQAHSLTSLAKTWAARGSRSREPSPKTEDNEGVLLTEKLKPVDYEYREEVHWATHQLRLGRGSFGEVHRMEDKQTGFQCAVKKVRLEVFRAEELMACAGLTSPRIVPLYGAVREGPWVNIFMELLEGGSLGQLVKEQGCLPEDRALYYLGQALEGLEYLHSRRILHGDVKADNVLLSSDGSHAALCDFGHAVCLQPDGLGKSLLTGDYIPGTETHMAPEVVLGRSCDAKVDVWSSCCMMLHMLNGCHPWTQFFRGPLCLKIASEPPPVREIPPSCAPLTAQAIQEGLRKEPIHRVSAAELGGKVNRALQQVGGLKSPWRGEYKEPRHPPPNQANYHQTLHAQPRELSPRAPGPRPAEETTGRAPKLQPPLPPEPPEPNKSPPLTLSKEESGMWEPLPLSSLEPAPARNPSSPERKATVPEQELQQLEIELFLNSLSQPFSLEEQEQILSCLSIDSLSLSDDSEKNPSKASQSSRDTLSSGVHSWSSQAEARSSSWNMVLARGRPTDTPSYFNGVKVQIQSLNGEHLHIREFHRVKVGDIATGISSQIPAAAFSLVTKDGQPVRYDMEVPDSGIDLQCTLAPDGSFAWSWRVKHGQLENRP

SMILES: CC(=O)c1c(NS(C)(=O)=O)c2cc(-c3ccc(Cl)cc3)c(-c3ccc(Cl)cc3Cl)nc2n(C)c1=O [MRL-CB1-NC]
- residual activity [1]: 100%
- residual activity [2]: 83%
- residual activity [3]: 73%
- residual activity [4]: 100%
- residual activity [5]: 99%
- inhibition [6]: 68.5%
- residual activity [7]: 75%
- residual activity [8]: 100%
- residual activity [9]: 93%
- residual activity [10]: 100%
- residual activity [11]: 63%
- residual activity [12]: 80%
- residual activity [13]: 100%
- residual activity [14]: 100%
- residual activity [15]: 83%
- inhibition [16]: 78.9%
- residual activity [17]: 76%
- residual activity [18]: 100%
- residual activity [19]: 100%
- residual activity [20]: 98%
- residual activity [21]: 93%
- residual activity [22]: 99%
- residual activity [23]: 88%
- residual activity [24]: 100%
- residual activity [25]: 100%
- residual activity [26]: 100%
- residual activity [27]: 100%
- residual activity [28]: 81%
- inhibition [29]: 18.8%
- inhibition [30]: 3.28%
- residual activity [31]: 94%
- inhibition [32]: 67.2%
- residual activity [33]: 95%
- residual activity [34]: 92%
- residual activity [35]: 97%
- residual activity [36]: 96%
- residual activity [37]: 100%
- residual activity [38]: 96%
- residual activity [39]: 100%
- residual activity [40]: 100%
- residual activity [41]: 100%
- residual activity [42]: 100%
- residual activity [43]: 100%
- residual activity [44]: 100%
- residual activity [45]: 63%

SMILES: CC(=O)Nc1c(C(C)=O)c(=O)n(C)c2nc(-c3ccc(Cl)cc3Cl)c(-c3ccc(Cl)cc3)cc12 [NAPHTHYRIDINONE]
- residual activity [1]: 100%
- residual activity [2]: 100%
- residual activity [3]: 80%
- residual activity [4]: 100%
- residual activity [5]: 100%
- inhibition [6]: 32.9%
- residual activity [7]: 100%
- residual activity [8]: 100%
- residual activity [9]: 100%
- residual activity [10]: 100%
- residual activity [11]: 71%
- residual activity [12]: 100%
- residual activity [13]: 100%
- residual activity [14]: 100%
- residual activity [15]: 100%
- inhibition [16]: 3.44%
- residual activity [17]: 100%
- residual activity [18]: 100%
- residual activity [19]: 100%
- residual activity [20]: 100%
- residual activity [21]: 100%
- residual activity [22]: 100%
- residual activity [23]: 100%
- residual activity [24]: 100%
- residual activity [25]: 100%
- residual activity [26]: 100%
- residual activity [27]: 100%
- residual activity [28]: 100%
- inhibition [29]: -1.39%
- inhibition [30]: -3.7%
- residual activity [31]: 96%
- inhibition [32]: 16.6%
- residual activity [33]: 100%
- residual activity [34]: 100%
- residual activity [35]: 100%
- residual activity [36]: 100%
- residual activity [37]: 100%
- residual activity [38]: 95%
- residual activity [39]: 100%
- residual activity [40]: 100%
- residual activity [41]: 100%
- residual activity [42]: 100%
- residual activity [43]: 92%
- residual activity [44]: 100%
- residual activity [45]: 92%
